In ChEMBL document CHEMBL1124610, “Tyrphostins I: synthesis and biological activity of protein tyrosine kinase inhibitors” (J Med Chem, 1989):
pIC50: −log10 of the molar value.

Target: T1, Epidermal growth factor receptor (Homo sapiens, UniProt P00533)
Experiment: (§1) Inhibitory concentration of EGF dependent autophosphorylation of epidermal growth factor receptor kinase; call rule not given here

T1 sequence (P00533 whole entry): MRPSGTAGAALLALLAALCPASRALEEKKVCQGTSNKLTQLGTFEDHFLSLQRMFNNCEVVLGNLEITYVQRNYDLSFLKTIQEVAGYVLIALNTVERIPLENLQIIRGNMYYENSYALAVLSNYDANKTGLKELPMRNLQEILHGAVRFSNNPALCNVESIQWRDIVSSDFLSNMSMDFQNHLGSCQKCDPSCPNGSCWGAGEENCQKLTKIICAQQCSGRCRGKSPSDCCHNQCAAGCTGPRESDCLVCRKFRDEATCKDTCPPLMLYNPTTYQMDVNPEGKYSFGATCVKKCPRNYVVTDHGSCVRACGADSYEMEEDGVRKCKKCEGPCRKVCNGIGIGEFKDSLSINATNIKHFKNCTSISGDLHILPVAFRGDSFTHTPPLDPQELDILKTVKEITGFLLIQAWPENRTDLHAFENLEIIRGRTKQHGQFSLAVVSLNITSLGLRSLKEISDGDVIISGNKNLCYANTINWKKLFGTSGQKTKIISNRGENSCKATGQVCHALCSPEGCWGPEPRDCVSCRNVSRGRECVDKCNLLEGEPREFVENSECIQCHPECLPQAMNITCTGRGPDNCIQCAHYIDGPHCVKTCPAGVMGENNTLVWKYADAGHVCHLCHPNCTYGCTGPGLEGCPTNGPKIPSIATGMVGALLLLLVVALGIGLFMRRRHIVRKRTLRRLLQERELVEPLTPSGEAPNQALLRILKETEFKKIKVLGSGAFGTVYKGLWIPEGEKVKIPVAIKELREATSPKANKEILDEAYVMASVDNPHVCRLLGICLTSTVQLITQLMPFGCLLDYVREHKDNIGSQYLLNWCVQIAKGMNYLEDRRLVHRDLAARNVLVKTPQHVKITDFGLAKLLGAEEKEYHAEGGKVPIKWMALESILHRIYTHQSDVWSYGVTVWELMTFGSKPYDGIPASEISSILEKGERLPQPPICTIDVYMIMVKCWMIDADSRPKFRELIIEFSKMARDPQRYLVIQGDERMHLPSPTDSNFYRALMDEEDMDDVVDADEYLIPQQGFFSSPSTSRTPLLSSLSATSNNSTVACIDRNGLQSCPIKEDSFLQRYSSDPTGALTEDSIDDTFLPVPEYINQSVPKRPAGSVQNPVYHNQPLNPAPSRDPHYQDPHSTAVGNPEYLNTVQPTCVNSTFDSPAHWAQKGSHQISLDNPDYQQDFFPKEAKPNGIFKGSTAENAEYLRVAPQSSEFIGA

| Compound | pIC50 |
| --- | --- |
| N#CC(C#N)=Cc1cc(O)cc(O)c1 | 4.43 |
| N#CC(C#N)=Cc1ccc(N2CCOCC2)cc1 | < 3.20 |
| COc1cc(C=C(C#N)C#N)cc(Br)c1O | 3.82 |
| N#C/C(=C/c1cc(O)ccc1O)C(=O)O | 4.12 |
| N#CC(C#N)=Cc1ccc(C(=O)O)cc1 | 3.37 |
| N#CC(C#N)=C(O)c1cc(O)c(O)c(O)c1 | 4.87 |
| N#CC(C#N)=Cc1ccc(NC(=O)CCC(=O)O)cc1 | 3.19 |
| N#C/C=C/c1ccc(O)cc1 | 2.62 |
| N#CC(C#N)Cc1ccc(O)cc1 | 2.19 |
| COc1ccc(NN=C(C#N)C#N)cc1 | 3.22 |
| O=C(O)/C=C/c1ccc(O)c(O)c1 [CAFFEIC ACID] | 2.92 |
| COc1cc(C=C(C#N)C#N)cc([N+](=O)[O-])c1O | 3.80 |
| N#C/C(=C\c1ccc(C=O)cc1)C(=O)O | 3.85 |
| CC(C)(C)c1cc(C=C(C#N)C#N)cc(C(C)(C)C)c1O [TYRPHOSTIN A9] | 3.34 |
| N#CC(C#N)=Cc1ccc(O)c([N+](=O)[O-])c1 | 3.90 |
| N#CC(C#N)=Cc1cc(O)ccc1[N+](=O)[O-] | 4.02 |
| N#C/C(=C\c1ccc(O)c(O)c1)C(N)=O | 5.00 |
| CCCCc1cc(/C=C(\C#N)C(N)=O)cc(CCCC)c1O | 4.26 |
| N#CC(C#N)=NNc1ccc(O)cc1 | 3.65 |
| COc1ccc(C=C(C#N)C#N)cc1O | < 3.60 |
| COc1cc(/C(C)=C(\C#N)C(=O)O)ccc1O | 2.96 |

| Compound | pIC50 |
| --- | --- |
| N#C/C(=C\c1ccc(O)c(O)c1)C(=O)O | 4.15 |
| COc1cc(/C=C(\C#N)C(=O)O)ccc1O | 3.10 |
| N#CC(C#N)=Cc1ccc(F)cc1 | < 2.90 |
| N#C/C(=C\c1ccccc1)C(=O)O | < 2.60 |
| N#CCNC(=O)/C(C#N)=C/c1ccc(O)cc1 | 3.20 |
| N#C/C(=C\c1ccc(O)cc1)C(N)=O | 3.10 |
| N#CC(C#N)=C(N)/C(C#N)=C/c1cc(O)c(O)c(O)c1 [TYRPHOSTIN 51] | 6.10 |
| N#CC(C#N)=Cc1ccc(O)cc1 | 3.25 |
| COc1cc(/C=C(\C#N)C(=O)O)cc(OC)c1O | 3.15 |
| N#CC(C#N)=C1C(=O)NC(=O)NC1=O | 2.85 |
| COc1ccc(/C=C(\C#N)C(=O)O)cc1 | 2.60 |
| N[C@@H](Cc1ccc(O)c(O)c1)C(=O)O [LEVODOPA] | 3.05 |
| O=CN/C=C/c1cc(O)ccc1O [ERBSTATIN] | 4.85 |
| COc1cc(C=C(C#N)C#N)ccc1O | 3.70 |
| N#CC(C#N)=Cc1ccc(/C=C/C(=O)O)cc1 | 3.35 |
| CC(=C(C#N)C#N)c1ccc(N)cc1 | < 2.90 |
| N#CC(C#N)=C(O)c1ccc(O)cc1 | 3.64 |
| N#C/C(=C\c1ccc(O)cc1)C(=O)O [alpha-CYANO-4-HYDROXYCINNAMIC ACID] | 3.51 |
| N#C/C(=C\c1ccc([N+](=O)[O-])cc1)C(=O)O | 2.89 |
| N#CC(C#N)=Cc1cc(O)c(O)c(O)c1 [TYRPHOSTIN 25] | 5.52 |
| N#CC(C#N)=C(N)/C(C#N)=C/c1cc(O)c(O)c(Br)c1 | 6.30 |

| Compound | pIC50 |
| --- | --- |
| N#CC(C#N)=C(N)/C(C#N)=C/c1ccc(O)c(O)c1 | 5.60 |
| N#C/C(=C/c1ccc[nH]1)C(=O)O | 2.87 |
| N#CC(C#N)=C(N)/C(C#N)=C/c1ccc(O)c([N+](=O)[O-])c1 | 4.22 |
| COc1cc(C=C(C#N)C#N)cc(OC)c1 | < 2.90 |
| N#CC(C#N)=Cc1cccc(O)c1 | 3.43 |
| CC(=C(C#N)C#N)c1ccc(NC(=O)CCC(=O)O)cc1 | 3.30 |
| N#CC(C#N)=CNc1ccc(O)cc1 | 3.46 |
| O=C(O)C(=Cc1ccc(O)cc1)C(=O)O | 2.82 |
| COc1ccc(C(O)=C(C#N)C#N)cc1 | 3.35 |
| N#CC(C#N)=Cc1ccc[nH]1 | 3.59 |
| COc1cc(C=C(C#N)C#N)cc(O)c1O | 5.22 |
| N#C/C(=C\c1ccc(F)cc1)C(=O)O | 2.60 |
| N#CC(C#N)=Cc1ccc([N+](=O)[O-])c(O)c1 | 3.35 |
| N#CC(C#N)=Cc1ccc(C=O)cc1 | 4.22 |
| N#CC(C#N)=C(N)/C(C#N)=C/c1ccc(O)cc1 | 6.90 |
| N#CC(C#N)=Cc1cc[n+]([O-])cc1 | 2.89 |
| O=C(O)/C=C/c1ccc(O)cc1 [COUMARIC ACID] | 2.52 |
| COc1cc(C=C(C#N)C#N)cc(OC)c1O | 3.07 |
| N#CC(C#N)=Cc1ccncc1 | 3.60 |

Target: T1, Epidermal growth factor receptor
Experiment: Inhibition of EGF-dependent epidermal growth factor receptor autophosphorylation (inactive)

| Compound | IC50 | Ki |
| --- | --- | --- |
| O=C(O)c1ccc(O)cc1 [PARABEN] | Not Active | Not Active |
| O=[N+]([O-])c1ccc(O)c(O)c1 [4-Nitrocatechol] | Not Active | Not Active |

Target: T1, Epidermal growth factor receptor
Experiment: as §1

| Compound | pIC50 |
| --- | --- |
| N#C/C(=C\c1ccc(C=O)cc1)C(=O)O | 3.85 |
| N#C/C(=C\c1ccc(O)c(O)c1)C(=O)O | 4.15 |
| COc1cc(/C=C(\C#N)C(=O)O)ccc1O | 3.10 |
| CN(C)c1ccc(/C=C(\C#N)C(=O)O)cc1 | 2.85 |
| N#C/C(=C\c1ccccc1)C(=O)O | < 2.60 |
| COc1cc(/C=C(\C#N)C(=O)O)cc(OC)c1O | 3.15 |
| Cc1ccc(/C=C(\C#N)C(=O)O)cc1 | 2.87 |
| COc1ccc(/C=C(\C#N)C(=O)O)cc1 | 2.60 |
| N#C/C(=C\c1ccc(O)cc1)C(=O)O [alpha-CYANO-4-HYDROXYCINNAMIC ACID] | 3.51 |
| N#C/C(=C\c1ccc(F)cc1)C(=O)O | 2.60 |
